In US10150766B2, “P2X7 modulators” (Jansssen Pharmaceutica NV, priority 2014, dated 2018):
Values joined by “and” are separate entries in the source; they are usually repeats but may differ in a detail not shown here. Identical values can stand only once.

Columns and labels:
P2X7 [1] = target: T1, P2X7 (Homo sapiens (Human), UniProt Q99572); test: P2X7 antagonism in human peripheral blood mononuclear cells (PBMCs), IL-1β release (LPS + Bz-ATP, ELISA); type: cell-based; details: P2X7, 10 μM test compound, LPS 30 ng/ml + Bz-ATP 0.5 mM, read-out: PBMC @10 μM (% control)
Procedure: (§1) P2X7 Antagonism in Human Peripheral Blood Mononuclear Cells (PBMCs) and Human Whole Blood.
(§2) Human blood was collected using a blood donor program. PBMCs were isolated from blood using a Ficoll density gradient technique. Briefly, blood was laid on Ficoll solution and centrifuged at ROOM TEMPERATURE for 20 minutes at 2000 rpm. The buffy layer (between red blood cells and plasma) was carefully collected by aspiration, washed with PBS and centrifuged again at 1500 rpm for 15 minutes. The resulting cell pellet was washed and plated on 96 well-plates for experiments. For the Human Whole Blood experiments, 150 μl of human blood was plated on 96 well-plates. Lipopolysaccharide (LPS) (30 ng/ml) was added to each well and incubated for 1 hour. Test compounds were then added and incubated for 30 minutes. The P2X7 agonist, 2′(3′)-O-(4-benzoylbenzoyl) adenosine 5′-triphosphate (Bz-ATP) was then added at a final concentration of 0.5 mM (PBMC) or 1 mM (blood). Cells were incubated for an additional 1.5 hours. At that point, supernatant was collected and stored for IL-1β assay using manufacturer's protocol for enzyme-linked immunosorbant assay (ELISA). Data was expressed as percent control, where control is defined as the difference in IL-1β release in LPS+Bz-ATP samples and LPS only samples. Data was plotted as response (% control) versus concentration to generate IC50 values. […] Data are analyzed and graphed on Graphpad Prism 5. For analysis, each concentration point is averaged from triplicate values and the averaged values are plotted on Graphpad Prism. The IC50 for each compound is then uploaded into 3DX.

P2X7 [2] = target: T1, P2X7; test: P2X7 antagonism in human whole blood, IL-1β release (LPS + Bz-ATP, ELISA); type: cell-based; details: Human Whole Blood IC50 (μM), LPS 30 ng/ml + Bz-ATP 1 mM
Procedure: as §1, §2

rat P2X7 = rat P2X7 (Rattus norvegicus (Rat), UniProt Q64663); test: P2X7 antagonism in recombinant rat P2X7 cells (column headed P2X7 Rat IC50); type: binding
Procedure: The in vitro affinity of the compounds of the invention for the rat and human P2X7 receptor was determined using a human peripheral blood mononuclear cells (PBMCs), a human whole blood assay, a Ca^2+ flux and radioligand binding assay in recombinant human P2X7 cells and recombinant rat P2X7 cells. […] The data represented in Tables 2 may represent a value from a single determination or when the experiment was run more than once, the data represents the average from between 2-12 runs.
P2X7 Antagonism in Recombinant Human P2X7 Cells or Recombinant Rat P2X7 Cells: […]

rat P2X7, sequence (Q64663 whole entry): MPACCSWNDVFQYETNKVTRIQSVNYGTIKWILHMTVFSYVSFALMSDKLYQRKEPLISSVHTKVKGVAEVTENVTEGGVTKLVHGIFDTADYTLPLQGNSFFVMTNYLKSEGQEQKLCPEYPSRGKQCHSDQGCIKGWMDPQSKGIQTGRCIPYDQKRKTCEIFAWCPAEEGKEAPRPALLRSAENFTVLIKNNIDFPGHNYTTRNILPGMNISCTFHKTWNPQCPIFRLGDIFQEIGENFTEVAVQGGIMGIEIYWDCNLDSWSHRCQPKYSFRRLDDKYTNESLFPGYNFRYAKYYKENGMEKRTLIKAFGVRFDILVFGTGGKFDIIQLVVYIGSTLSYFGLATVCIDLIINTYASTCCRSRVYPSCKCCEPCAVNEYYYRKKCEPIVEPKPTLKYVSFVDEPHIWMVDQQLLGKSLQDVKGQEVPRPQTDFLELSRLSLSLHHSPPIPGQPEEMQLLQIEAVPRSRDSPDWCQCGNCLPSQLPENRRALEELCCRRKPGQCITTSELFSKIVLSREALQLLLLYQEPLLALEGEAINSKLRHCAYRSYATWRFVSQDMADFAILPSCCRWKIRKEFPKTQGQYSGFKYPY
T1 sequence (Q99572 whole entry): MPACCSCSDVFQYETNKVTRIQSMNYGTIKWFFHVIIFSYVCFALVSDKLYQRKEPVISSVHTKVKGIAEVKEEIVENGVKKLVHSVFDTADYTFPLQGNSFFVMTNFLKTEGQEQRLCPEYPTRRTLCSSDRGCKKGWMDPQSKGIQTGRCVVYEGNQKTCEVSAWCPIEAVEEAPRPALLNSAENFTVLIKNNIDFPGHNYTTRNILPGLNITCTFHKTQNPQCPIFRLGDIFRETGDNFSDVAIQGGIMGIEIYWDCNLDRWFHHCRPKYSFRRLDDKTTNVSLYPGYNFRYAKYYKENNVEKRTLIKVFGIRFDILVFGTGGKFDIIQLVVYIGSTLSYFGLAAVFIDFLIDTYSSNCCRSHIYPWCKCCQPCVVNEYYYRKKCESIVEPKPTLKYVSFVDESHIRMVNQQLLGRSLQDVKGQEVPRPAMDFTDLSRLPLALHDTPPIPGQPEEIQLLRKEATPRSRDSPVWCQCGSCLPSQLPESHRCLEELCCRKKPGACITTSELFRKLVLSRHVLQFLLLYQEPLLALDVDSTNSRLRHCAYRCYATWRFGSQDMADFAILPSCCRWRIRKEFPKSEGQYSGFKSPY

SMILES	remaining activity at 10 µM (P2X7 [1]) [%]	IC50 (P2X7 [2])	IC50 (rat P2X7) [nM]
Cc1nc(-c2cnn(C)c2)c2c(n1)[C@H]1CCC[C@@H](C2)N1C(=O)c1ccc(F)cc1Cl [Example 36, (2-chloro-4-fluorophenyl)((6S,10R)-2-methyl-4-(1-methyl-1H-pyrazol-4-yl)-5,6,7,8,9,10-hexahydro-6,10-epiminocycloocta[d]pyrimidin-11-yl)methanone]	73.8	–	–
Cc1nc(-c2ccc(F)cc2)c2c(n1)[C@@H]1CCC[C@H](C2)N1C(=O)c1ccc(F)c(Cl)c1Cl [Example 17, (2,3-dichloro-4-fluorophenyl)((6R,10S)-4-(4-fluorophenyl)-2-methyl-5,6,7,8,9,10-hexahydro-6,10-epiminocycloocta[d]pyrimidin-11-yl)methanone]	13.3	2.02 µM	–
Cc1nc(-c2ccn[nH]2)c2c(n1)[C@@H]1CCC[C@H](C2)N1C(=O)c1ccc(Cl)cc1Cl [Example 5, (2,4-dichlorophenyl)((6R,10S)-2-methyl-4-(1H-pyrazol-5-yl)-5,6,7,8,9,10-hexahydro-6,10-epiminocycloocta[d]pyrimidin-11-yl)methanone]	76.5	2 µM	–
Cc1nc(-c2ccn[nH]2)c2c(n1)C1CCCC(C2)N1C(=O)c1cccc(C(F)(F)F)c1Cl (centres unmarked) [Example 2, (2-chloro-3-(trifluoromethyl)phenyl)(2-methyl-4-(1H-pyrazol-5-yl)-5,6,7,8,9,10-hexahydro-6,10-epiminocycloocta[d]pyrimidin-11-yl)methanone]	1.1	–	–
Cc1nc(-c2ccc(F)cc2)c2c(n1)[C@@H]1CCC[C@H](C2)N1C(=O)c1ccc(Cl)cc1Cl [Example 15, (2,4-dichlorophenyl)((6R,10S)-4-(4-fluorophenyl)-2-methyl-5,6,7,8,9,10-hexahydro-6,10-epiminocycloocta[d]pyrimidin-11-yl)methanone]	–	5.05 µM and 13.3 µM	–
Cc1nc(-c2cnccn2)c2c(n1)[C@H]1CCC[C@@H](C2)N1C(=O)c1ccnc(C(F)(F)F)c1Cl [Example 49, (3-chloro-2-(trifluoromethyl)pyridin-4-yl)((6S,10R)-2-methyl-4-(pyrazin-2-yl)-5,6,7,8,9,10-hexahydro-6,10-epiminocycloocta[d]pyrimidin-11-yl)methanone]	-1.9	–	139
Cc1nc(-c2cnn(C)c2)c2c(n1)[C@H]1CCC[C@@H](C2)N1C(=O)c1ccc(Cl)cc1Cl [Example 40, (2,4-dichlorophenyl)((6S,10R)-2-methyl-4-(1-methyl-1H-pyrazol-4-yl)-5,6,7,8,9,10-hexahydro-6,10-epiminocycloocta[d]pyrimidin-11-yl)methanone]	76.2	–	–
Cc1nc(-c2cnn(C)c2)c2c(n1)[C@H]1CCC[C@@H](C2)N1C(=O)c1cccc(C(F)(F)F)c1Cl [Example 30, (2-chloro-3-(trifluoromethyl)phenyl)((6S,10R)-2-methyl-4-(1-methyl-1H-pyrazol-4-yl)-5,6,7,8,9,10-hexahydro-6,10-epiminocycloocta[d]pyrimidin-11-yl)methanone]	-3.7	–	> 10000
Cc1nc(-c2ccn[nH]2)c2c(n1)[C@@H]1CCC[C@H](C2)N1C(=O)c1cccc(C(F)(F)F)c1Cl [Example 3, (2-chloro-3-(trifluoromethyl)phenyl)((6R,10S)-2-methyl-4-(1H-pyrazol-5-yl)-5,6,7,8,9,10-hexahydro-6,10-epiminocycloocta[d]pyrimidin-11-yl)methanone]	22	–	811
Cc1nc(-c2ccc(F)cc2)c2c(n1)[C@H]1CCC[C@@H](C2)N1C(=O)c1ccc(Cl)c(F)c1Cl [Example 54, (2,4-dichloro-3-fluorophenyl)((6S,10R)-4-(4-fluorophenyl)-2-methyl-5,6,7,8,9,10-hexahydro-6,10-epiminocycloocta[d]pyrimidin-11-yl)methanone]	9.3	–	372
Cc1nc(-c2ccn[nH]2)c2c(n1)[C@H]1CCC[C@@H](C2)N1C(=O)c1cccc(C(F)(F)F)c1F [Example 26, (2-fluoro-3-(trifluoromethyl)phenyl)((6S,10R)-2-methyl-4-(1H-pyrazol-5-yl)-5,6,7,8,9,10-hexahydro-6,10-epiminocycloocta[d]pyrimidin-11-yl)methanone]	-3.8	–	41.4
Cc1nc(-c2cnccn2)c2c(n1)[C@H]1CCC[C@@H](C2)N1C(=O)c1cccc(Cl)c1Cl [Example 48, (2,3-dichlorophenyl)((6S,10R)-2-methyl-4-(pyrazin-2-yl)-5,6,7,8,9,10-hexahydro-6,10-epiminocycloocta[d]pyrimidin-11-yl)methanone]	-4.3	–	54.3
Cc1nc(-c2ccccn2)c2c(n1)[C@H]1CCC[C@@H](C2)N1C(=O)c1ccnc(C(F)(F)F)c1Cl [Example 61, (3-chloro-2-(trifluoromethyl)pyridin-4-yl)((6S,10R)-2-methyl-4-(pyridin-2-yl)-5,6,7,8,9,10-hexahydro-6,10-epiminocycloocta[d]pyrimidin-11-yl)methanone]	0.4	–	46
Cc1nc(-c2ccn[nH]2)c2c(n1)[C@H]1CCC[C@@H](C2)N1C(=O)c1cccc(C(F)(F)F)c1Cl [Example 19, (2-chloro-3-(trifluoromethyl)phenyl)((6S,10R)-2-methyl-4-(1H-pyrazol-5-yl)-5,6,7,8,9,10-hexahydro-6,10-epiminocycloocta[d]pyrimidin-11-yl)methanone]	-3	–	12.2
Cc1nc(-c2ccc(F)cc2)c2c(n1)[C@@H]1CCC[C@H](C2)N1C(=O)c1ccnc(C(F)(F)F)c1Cl [Example 18, (3-chloro-2-(trifluoromethyl)pyridin-4-yl)((6R,10S)-4-(4-fluorophenyl)-2-methyl-5,6,7,8,9,10-hexahydro-6,10-epiminocycloocta[d]pyrimidin-11-yl)methanone]	28.9	–	> 10000
Cc1nc(-c2ccc(F)cc2)c2c(n1)[C@H]1CCC[C@@H](C2)N1C(=O)c1ccnc(C(F)(F)F)c1Cl [Example 52, (3-chloro-2-(trifluoromethyl)pyridin-4-yl)((6S,10R)-4-(4-fluorophenyl)-2-methyl-5,6,7,8,9,10-hexahydro-6,10-epiminocycloocta[d]pyrimidin-11-yl)methanone]	-1.2	–	81.8
Cc1nc(-c2ccn[nH]2)c2c(n1)[C@@H]1CCC[C@H](C2)N1C(=O)c1cccc(C(F)(F)F)c1F [Example 8, (2-fluoro-3-(trifluoromethyl)phenyl)((6R,10S)-2-methyl-4-(1H-pyrazol-5-yl)-5,6,7,8,9,10-hexahydro-6,10-epiminocycloocta[d]pyrimidin-11-yl)methanone]	31.9	–	601
Cc1nc(-c2ncccn2)c2c(n1)[C@H]1CCC[C@@H](C2)N1C(=O)c1cccc(C(F)(F)F)c1C [Example 43, (2-methyl-3-(trifluoromethyl)phenyl)((6S,10R)-2-methyl-4-(pyrimidin-2-yl)-5,6,7,8,9,10-hexahydro-6,10-epiminocycloocta[d]pyrimidin-11-yl)methanone]	15	–	41.7
